Results published in ChEMBL document CHEMBL1201862, “PubChem BioAssay data set” (2004).
Active and inactive are the calls of the source.

Columns and labels:
[1] = off-target signal loss in HeLa-CEM21 co-culture – HeLa F-luc CTL cells, cherry-picked, counter-screen for HIV-1 Env fusion inhibitor project, dose response (AID 652040); type: functional, cell-based;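 note: potency for signal decrease marking cytotoxic or nonspecific inhibition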
[2] = blockers of HIV-1 ZM109 envelope-driven cell-cell fusion – HeLa effector, CEM target cells, luciferase, cherry-pick, dose response (AID 652058); type: functional, cell-based;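 note: luciferase signal from HIV-1 Env mediated cell-cell fusion of effector and target cells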
[3] = HIV-1 AD8 envelope cell-cell fusion blockers – cherry-pick, dose response (AID 652062); type: functional, cell-based;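 note: luciferase signal from cell-cell fusion driven by HIV-1 clade B AD8 Env; potency is for inhibitors of fusion seen as a drop in luminescence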
[4] = blockers of HIV-1 envelope-mediated cell-cell fusion – cherry-pick, dose response (AID 652057); type: functional, cell-based
cells [5] = type: functional, cell-based
cells [6] = type: functional, cell-based; remark: listed apart in the source
[7] = target: T1, Fructose-bisphosphate aldolase (Mycobacterium tuberculosis, UniProt P9WQA3); test: Fluorescence-based biochemical high throughput dose response assay for inhibitors of the fructose-bisphosphate aldolase (FBA) of M. tuberculosis.; type: functional
T1 sequence (P9WQA3 whole entry): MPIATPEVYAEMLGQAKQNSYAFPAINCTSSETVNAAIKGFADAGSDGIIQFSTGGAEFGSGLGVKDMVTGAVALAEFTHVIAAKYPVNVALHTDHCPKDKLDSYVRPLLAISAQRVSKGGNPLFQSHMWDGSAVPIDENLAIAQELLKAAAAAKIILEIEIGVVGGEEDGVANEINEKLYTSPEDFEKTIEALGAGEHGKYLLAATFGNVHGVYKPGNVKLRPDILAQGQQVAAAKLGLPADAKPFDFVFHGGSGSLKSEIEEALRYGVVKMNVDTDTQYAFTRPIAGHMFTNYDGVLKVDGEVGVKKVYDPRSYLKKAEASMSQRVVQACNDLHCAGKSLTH

[8] = target: T2, Short transient receptor potential channel 4 (Mus musculus, UniProt Q9QUQ5); test: block of DAMGO-driven TRPC4 calcium entry – cell-based, HEK293 TRPC4/mu-opioid, Fluo-4 calcium, dose response (AID 434942); type: functional;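 note: potency of inhibitors blocking the TRPC4 calcium response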
T2 sequence (Q9QUQ5 whole entry): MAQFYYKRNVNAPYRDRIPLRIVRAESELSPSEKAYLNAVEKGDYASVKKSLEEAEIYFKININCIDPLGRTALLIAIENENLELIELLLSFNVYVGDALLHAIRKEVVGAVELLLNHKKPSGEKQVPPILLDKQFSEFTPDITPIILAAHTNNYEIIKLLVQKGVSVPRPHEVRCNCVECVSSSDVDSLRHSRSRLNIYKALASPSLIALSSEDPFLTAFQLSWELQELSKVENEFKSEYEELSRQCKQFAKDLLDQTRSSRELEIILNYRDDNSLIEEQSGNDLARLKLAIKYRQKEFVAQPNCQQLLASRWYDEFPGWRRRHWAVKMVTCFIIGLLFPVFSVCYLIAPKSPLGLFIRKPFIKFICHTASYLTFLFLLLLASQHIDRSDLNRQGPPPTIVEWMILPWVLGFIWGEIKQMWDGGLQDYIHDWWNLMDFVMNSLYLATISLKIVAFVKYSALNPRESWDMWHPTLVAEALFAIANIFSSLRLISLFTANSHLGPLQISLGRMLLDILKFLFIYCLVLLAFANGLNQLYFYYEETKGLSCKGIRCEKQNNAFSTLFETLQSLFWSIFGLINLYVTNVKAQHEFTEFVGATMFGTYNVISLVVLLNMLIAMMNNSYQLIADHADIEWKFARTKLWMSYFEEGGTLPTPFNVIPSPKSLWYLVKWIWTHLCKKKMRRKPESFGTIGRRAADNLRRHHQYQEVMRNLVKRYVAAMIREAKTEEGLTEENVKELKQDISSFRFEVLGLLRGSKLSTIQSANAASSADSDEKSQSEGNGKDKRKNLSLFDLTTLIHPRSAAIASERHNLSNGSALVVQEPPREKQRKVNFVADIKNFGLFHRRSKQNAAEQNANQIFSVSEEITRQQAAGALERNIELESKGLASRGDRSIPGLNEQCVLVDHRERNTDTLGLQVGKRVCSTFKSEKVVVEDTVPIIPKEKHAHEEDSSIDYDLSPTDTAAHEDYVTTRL

H4 = test: Luminescence Cell-Based Dose Response HTS to Identify Activators of 5'UTR Stem-Loop Driven Prion Protein mRNA Translation in H4 Neuroglioblastoma Cells. [Related pubchem assays: 1829 (Project Summary), 1814 (Primary HTS)]; type: functional; conditions: Homo sapiens
[9] = Luminescence Cell-Based Dose Confirmation HTS to Identify Activators of 5'UTR Stem-Loop Driven Alpha-Synuclein mRNA Translation in H4 Neuroglioblastoma Cells. [Related pubchem assays: 1829 (Project Summary), 1814 (Primary HTS)]; type: functional
[10] = Luminescence Cell-Based Dose Response HTS to Identify Activators of Luciferase Translation or Activity in H4 […] Cells. [Related pubchem assays: 1829 (Project Summary), 1814 (Primary HTS)]; type: functional
[11] = target: T3, Nuclear receptor subfamily 0 group B member 1 (Homo sapiens, UniProt P51843); type: functional, cell-based;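 note: HEK293T cells transfected with SF-1 and DAX-1 plus StAR promoter luciferase reporter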
T3 sequence (P51843 whole entry): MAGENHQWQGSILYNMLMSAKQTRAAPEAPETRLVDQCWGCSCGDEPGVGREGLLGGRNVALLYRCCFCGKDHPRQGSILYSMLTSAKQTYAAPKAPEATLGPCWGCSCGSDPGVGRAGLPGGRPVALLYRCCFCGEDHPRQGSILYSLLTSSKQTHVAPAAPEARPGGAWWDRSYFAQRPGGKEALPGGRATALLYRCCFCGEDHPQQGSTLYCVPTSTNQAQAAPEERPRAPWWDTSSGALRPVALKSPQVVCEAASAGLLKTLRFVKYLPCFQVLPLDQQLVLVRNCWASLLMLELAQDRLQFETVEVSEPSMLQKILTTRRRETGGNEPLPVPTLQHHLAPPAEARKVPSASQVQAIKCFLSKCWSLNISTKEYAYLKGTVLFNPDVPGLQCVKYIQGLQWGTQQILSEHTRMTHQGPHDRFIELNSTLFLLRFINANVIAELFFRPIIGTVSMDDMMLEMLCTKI

cells [12] = type: functional, cell-based; remark: listed apart in the source
Cytochrome P450 3A4 = Cytochrome P450 3A4 (Homo sapiens, UniProt P08684);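 note: CYP3A4 tested as one member of a cytochrome P450 panel screen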
Cytochrome P450 1A2 = target: T4, Cytochrome P450 1A2 (Homo sapiens, UniProt P05177);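 note: PubChem cytochrome P450 panel assay, CYP1A2 panel member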
T4 sequence (P05177 whole entry): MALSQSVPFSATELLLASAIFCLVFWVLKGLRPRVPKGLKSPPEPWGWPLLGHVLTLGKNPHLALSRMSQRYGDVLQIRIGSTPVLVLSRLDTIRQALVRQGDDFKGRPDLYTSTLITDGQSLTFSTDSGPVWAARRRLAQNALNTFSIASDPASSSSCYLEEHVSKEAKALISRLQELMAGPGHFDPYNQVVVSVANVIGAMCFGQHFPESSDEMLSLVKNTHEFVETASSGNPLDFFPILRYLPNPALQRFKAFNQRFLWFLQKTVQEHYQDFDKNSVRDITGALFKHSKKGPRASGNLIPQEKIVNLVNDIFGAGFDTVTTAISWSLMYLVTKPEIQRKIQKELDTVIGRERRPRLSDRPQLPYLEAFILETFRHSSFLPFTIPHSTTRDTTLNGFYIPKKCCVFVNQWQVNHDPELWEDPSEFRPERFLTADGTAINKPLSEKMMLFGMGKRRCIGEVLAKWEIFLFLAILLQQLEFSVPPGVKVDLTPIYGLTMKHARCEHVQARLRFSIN

HEK293 = test: EBV LMP1 TES2 canonical NF-kB signalling blockers – cell-based, HEK293, luciferase, cherry-pick, dose response (AID 588343); type: functional; conditions: Homo sapiens
[13] = target: T5, Histone-lysine N-methyltransferase NSD2 (Homo sapiens, UniProt O96028); type: biochemical
T5 sequence (O96028 whole entry): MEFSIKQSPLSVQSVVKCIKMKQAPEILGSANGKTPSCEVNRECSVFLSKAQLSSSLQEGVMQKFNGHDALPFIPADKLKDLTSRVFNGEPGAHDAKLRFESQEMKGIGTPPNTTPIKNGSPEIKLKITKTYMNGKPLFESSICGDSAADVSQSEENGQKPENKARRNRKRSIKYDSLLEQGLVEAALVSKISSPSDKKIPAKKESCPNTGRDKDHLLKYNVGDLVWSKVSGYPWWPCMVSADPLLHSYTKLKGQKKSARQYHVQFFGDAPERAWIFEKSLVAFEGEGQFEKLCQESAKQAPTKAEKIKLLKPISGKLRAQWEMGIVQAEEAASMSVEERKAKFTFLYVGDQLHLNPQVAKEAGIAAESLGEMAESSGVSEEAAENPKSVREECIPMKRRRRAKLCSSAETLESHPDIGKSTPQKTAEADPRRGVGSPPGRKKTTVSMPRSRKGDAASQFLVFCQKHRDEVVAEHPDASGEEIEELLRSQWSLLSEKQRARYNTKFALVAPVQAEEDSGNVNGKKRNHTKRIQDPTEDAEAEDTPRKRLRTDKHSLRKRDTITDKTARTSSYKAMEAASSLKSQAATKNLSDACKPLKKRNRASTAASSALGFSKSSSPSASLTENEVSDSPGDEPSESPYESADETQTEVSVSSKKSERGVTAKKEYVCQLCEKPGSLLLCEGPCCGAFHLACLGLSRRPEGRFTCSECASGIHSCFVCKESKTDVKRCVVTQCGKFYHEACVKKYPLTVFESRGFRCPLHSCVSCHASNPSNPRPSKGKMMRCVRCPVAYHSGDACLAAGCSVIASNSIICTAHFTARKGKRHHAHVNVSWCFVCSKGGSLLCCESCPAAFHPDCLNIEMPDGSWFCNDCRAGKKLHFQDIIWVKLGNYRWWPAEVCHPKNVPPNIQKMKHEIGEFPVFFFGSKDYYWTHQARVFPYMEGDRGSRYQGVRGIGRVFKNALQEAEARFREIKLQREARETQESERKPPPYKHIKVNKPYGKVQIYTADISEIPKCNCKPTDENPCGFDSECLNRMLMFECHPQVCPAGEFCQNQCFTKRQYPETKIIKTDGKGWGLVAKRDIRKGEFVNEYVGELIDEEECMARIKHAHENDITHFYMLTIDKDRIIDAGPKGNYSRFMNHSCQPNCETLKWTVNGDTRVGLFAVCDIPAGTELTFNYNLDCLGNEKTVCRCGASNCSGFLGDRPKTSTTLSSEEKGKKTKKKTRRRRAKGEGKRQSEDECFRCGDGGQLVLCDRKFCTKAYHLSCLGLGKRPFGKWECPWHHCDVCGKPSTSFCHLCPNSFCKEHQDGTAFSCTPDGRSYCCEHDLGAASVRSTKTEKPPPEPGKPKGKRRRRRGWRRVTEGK

Genome polyprotein = Genome polyprotein (dengue virus type 2, UniProt P29990); test: flavivirus cap methylation enzyme inhibition – biochemical, confirmation dose response, primary screen (AID 588689); type: functional
Large T antigen = Large T antigen (Simian virus 40, UniProt P03070); type: functional, Betapolyomavirus macacae;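 note: Confirmatory-stage PubChem screen for compounds that inhibit SV40 T antigen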
Chain of Large T antigen (P03070 whole entry): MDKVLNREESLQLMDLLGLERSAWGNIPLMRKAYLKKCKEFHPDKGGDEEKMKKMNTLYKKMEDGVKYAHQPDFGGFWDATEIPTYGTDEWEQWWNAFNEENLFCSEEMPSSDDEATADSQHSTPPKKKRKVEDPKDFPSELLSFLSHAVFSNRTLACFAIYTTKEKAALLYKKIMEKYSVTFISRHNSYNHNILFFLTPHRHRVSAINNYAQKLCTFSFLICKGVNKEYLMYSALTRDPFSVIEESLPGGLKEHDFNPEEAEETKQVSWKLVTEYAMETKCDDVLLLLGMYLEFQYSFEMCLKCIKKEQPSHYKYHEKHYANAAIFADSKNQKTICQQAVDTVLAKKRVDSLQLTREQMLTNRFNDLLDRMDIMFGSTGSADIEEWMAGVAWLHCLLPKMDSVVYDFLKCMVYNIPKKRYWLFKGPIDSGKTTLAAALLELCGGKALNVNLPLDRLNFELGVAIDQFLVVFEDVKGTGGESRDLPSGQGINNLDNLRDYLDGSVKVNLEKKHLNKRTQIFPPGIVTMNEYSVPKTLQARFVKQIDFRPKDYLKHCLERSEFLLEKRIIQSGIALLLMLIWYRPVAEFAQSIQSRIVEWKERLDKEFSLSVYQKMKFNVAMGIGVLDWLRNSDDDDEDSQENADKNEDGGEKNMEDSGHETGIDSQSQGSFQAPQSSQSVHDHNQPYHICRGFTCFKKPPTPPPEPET

Chain of Genome polyprotein (P29990 2492-3391 limits assumed): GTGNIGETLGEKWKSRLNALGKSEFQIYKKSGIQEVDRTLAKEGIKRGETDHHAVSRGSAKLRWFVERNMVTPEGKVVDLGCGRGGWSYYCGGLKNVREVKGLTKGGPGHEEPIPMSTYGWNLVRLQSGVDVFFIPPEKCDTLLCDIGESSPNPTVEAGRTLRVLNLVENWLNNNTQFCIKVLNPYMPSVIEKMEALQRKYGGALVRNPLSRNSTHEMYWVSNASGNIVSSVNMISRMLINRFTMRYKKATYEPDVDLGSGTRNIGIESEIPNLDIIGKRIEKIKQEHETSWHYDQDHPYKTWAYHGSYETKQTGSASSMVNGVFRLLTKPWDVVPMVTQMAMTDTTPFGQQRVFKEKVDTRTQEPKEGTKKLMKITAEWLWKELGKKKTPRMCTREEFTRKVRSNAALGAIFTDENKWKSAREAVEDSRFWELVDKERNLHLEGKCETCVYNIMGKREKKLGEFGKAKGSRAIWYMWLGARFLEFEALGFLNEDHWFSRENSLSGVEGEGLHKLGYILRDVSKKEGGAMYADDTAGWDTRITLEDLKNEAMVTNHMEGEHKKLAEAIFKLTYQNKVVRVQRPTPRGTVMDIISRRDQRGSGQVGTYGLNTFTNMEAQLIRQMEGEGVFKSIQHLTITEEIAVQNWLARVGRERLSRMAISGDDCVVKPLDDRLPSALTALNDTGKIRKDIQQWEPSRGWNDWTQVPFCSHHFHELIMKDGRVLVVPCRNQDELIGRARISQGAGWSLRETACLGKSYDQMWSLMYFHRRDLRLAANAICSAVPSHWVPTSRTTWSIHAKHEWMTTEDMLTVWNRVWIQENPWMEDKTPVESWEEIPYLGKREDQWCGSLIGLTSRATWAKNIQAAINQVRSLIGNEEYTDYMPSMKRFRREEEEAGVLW
Chain of Cytochrome P450 3A4 (P08684 whole entry): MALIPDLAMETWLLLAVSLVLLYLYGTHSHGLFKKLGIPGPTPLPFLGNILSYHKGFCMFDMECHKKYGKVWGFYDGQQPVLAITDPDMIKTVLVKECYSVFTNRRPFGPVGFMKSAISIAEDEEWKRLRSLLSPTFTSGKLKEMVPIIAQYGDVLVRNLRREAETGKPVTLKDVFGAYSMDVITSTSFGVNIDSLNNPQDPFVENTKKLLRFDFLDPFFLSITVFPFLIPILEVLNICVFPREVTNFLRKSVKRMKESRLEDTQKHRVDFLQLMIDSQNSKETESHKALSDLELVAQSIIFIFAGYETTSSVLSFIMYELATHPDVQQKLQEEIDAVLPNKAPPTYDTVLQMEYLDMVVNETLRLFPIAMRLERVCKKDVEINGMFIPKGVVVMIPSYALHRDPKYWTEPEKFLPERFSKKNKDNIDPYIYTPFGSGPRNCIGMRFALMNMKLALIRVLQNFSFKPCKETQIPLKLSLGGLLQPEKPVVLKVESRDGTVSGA

For `CCOC(=O)c1c(C)[nH]c(C)c1C(=O)COC(=O)[C@@H](NC(=O)c1ccccc1OCC)C(C)C`, the AC50 [1] was 5.72 µM (active), the AC50 [2] was 2.71 µM (active) and the AC50 [3] was 2.19 µM (active). For the same compound, the AC50 [4] was 3.71 µM (active).

In the case of `CCOC(=O)C(NCCc1ccccc1F)(NC(=O)CC)C(F)(F)F` (stereo not drawn), the EC50 (cells [5]) is reported as > 29.9 µM (inactive) and the IC50 (cells [6]) is reported as > 29.9 µM (inactive).

With `Oc1ccc(CN2CCCCC2)nc1-c1ccccc1` the IC50 [7] was 3.34 µM (active) and the EC50 [8] was 4.73 µM (active).

For `N#Cc1cc(-c2cccc(Cl)c2)cnc1O`, the IC50 [7] was 2.29 µM (active).

For `CCOC(=O)N1CCN(C(=O)c2ccc3oc(CCCc4ccccc4)nc3c2)CC1`, the EC50 (H4) was 2.2 µM (active), the EC50 [9] was 0.579 µM (active) and the EC50 [10] was 0.436 µM (active). The IC50 [11] was > 67.5 µM (inactive) and the IC50 (cells [12]) was > 67.5 µM (inactive).

With `CCn1nc2cc(C(=O)NCC34CC5CC(CC(C5)C3)C4)ccc2c1OC` the IC50 [7] was 1.94 µM (active), the AC50 (Cytochrome P450 3A4) was “inconclusive” and the AC50 (Cytochrome P450 1A2) was 12.6 µM (inconclusive).

In the case of `C=CCNC1=NN=C(c2cc(C)n(CCOC)c2C)CS1`, the AC50 [1] is reported as 3.9 µM (active), the AC50 (HEK293) is reported as 2.08 µM (active) and the AC50 [2] is reported as 8.09 µM (active). The AC50 [3] was 4.19 µM (active) and the AC50 [4] was 1.56 µM (active).

With `NC(=O)C1CCN(C(=O)CCNS(=O)(=O)c2ccccc2F)CC1` the IC50 [7] was > 9.99 µM (inactive).

For `Cc1ccc(S(=O)(=O)/N=C2\C=C(NS(=O)(=O)c3ccc(C)cc3)C(=O)c3ccccc32)cc1`, the AC50 [13] was 2.98 µM (active) and the IC50 (Genome polyprotein) was 30.6 µM (active).

In the case of `Cc1cc(N/N=C/c2ccc(O)cc2O)nc(N2CCOCC2)n1`, the EC50 (cells [5]) is reported as > 29.9 µM (inactive), the IC50 (Large T antigen) is reported as > 100 µM (active) and the IC50 (cells [6]) is reported as > 29.9 µM (inactive).
